Measured values as given in PMC11287240 (RSC Advances, 2024).

Experiments:
[1] = biological target: EeAChE (Electrophorus electricus acetylcholinesterase) (Electrophorus electricus, UniProt O42275); assay: AChE inhibition assay; format: biochemical, electric eel
hBACE 1 = hBACE 1 (Homo sapiens, UniProt P56817); assay: BACE 1 FRET inhibition assay; format: biochemical; conditions: human BACE 1
[2] = hBACE 1 IC50 (μM) ± SD, mean ± SD, n = 3, FRET assay

Sequence of EeAChE (Electrophorus electricus acetylcholinesterase) (O42275 24-633): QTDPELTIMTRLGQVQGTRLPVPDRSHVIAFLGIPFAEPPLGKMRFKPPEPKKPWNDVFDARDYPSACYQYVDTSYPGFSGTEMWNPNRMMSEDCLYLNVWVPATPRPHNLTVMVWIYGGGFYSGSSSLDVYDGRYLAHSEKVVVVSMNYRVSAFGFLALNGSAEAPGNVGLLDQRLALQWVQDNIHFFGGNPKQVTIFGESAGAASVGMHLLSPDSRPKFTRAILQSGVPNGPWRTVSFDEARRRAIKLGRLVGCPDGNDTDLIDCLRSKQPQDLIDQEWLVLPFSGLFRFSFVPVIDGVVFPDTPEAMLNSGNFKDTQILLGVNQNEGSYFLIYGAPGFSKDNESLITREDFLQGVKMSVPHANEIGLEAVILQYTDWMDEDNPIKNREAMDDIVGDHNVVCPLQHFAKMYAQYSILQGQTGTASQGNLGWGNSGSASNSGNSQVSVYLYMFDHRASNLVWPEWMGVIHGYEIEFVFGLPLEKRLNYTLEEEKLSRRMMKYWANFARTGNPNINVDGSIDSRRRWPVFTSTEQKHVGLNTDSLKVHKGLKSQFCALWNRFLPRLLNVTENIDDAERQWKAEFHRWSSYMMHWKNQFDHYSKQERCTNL
Sequence of hBACE 1 (P56817 46-501): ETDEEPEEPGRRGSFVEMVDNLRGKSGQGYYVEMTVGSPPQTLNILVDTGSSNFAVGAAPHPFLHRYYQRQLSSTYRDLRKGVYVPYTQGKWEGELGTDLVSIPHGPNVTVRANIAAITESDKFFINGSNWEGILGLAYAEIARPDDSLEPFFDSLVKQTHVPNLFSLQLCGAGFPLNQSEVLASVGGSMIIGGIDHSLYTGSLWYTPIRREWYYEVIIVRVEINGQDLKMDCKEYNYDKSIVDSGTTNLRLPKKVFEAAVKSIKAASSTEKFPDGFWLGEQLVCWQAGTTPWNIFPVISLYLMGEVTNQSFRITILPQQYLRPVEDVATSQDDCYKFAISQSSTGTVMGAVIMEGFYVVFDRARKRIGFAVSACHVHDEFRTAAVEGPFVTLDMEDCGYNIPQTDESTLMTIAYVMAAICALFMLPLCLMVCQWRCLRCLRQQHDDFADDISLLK

Structure (SMILES) | IC50 [1] | IC50 (hBACE 1; [2]) | IC50 (hBACE 1; hBACE 1 PIC50 (μM))
[H]/N=C(/N)NN=C(/C=C/c1ccc(F)c(F)c1)c1cn(Cc2ccccc2)c2ccccc12 [Compound 1a, (Z)-2-((E)-1-(1-Benzyl-1H-indol-3-yl)-3-(3,4-difluorophenyl)allylidene)hydrazine-1-carboximidamide] | 77.2 ± 2.24 µM | 72.11 ± 0.01 µM | 72.4 µM
[H]/N=C(/N)NN=C(/C=C/c1ccc(C(C)(C)C)cc1)c1cn(Cc2ccccc2)c2ccccc12 [Compound 1b, (Z)-2-((E)-1-(1-Benzyl-1H-indol-3-yl)-3-(4-(tert-butyl)phenyl)allylidene)hydrazine-1-carboximidamide] | 42.9 ± 0.48 µM | 97.4 ± 1.36 µM | 97.7 µM
[H]/N=C(/N)NN=C(/C=C/c1ccc(OC)c(OC)c1)c1cn(Cc2ccccc2)c2ccccc12 [Compound 1c, (Z)-2-((E)-1-(1-Benzyl-1H-indol-3-yl)-3-(3,4-dimethoxyphenyl)allylidene)hydrazine-1-carboximidamide] | 77.1 ± 1.54 µM | 59.51 ± 0.21 µM | 58.9 µM
[H]/N=C(/N)NN=C(/C=C/c1ccc(C(C)C)cc1)c1cn(Cc2ccccc2)c2ccccc12 [Compound 1d, (Z)-2-((E)-1-(1-Benzyl-1H-indol-3-yl)-3-(4-isopropylphenyl)allylidene)hydrazine-1-carboximidamide] | 146 ± 3.18 µM | 11.7 ± 0.15 µM | 11.7 µM
[H]/N=C(/N)NN=C(/C=C/c1cccc(OC)c1)c1cn(Cc2ccccc2)c2ccccc12 [Compound 1e, (Z)-2-((E)-1-(1-Benzyl-1H-indol-3-yl)-3-(3-methoxyphenyl)allylidene)hydrazine-1-carboximidamide] | 137.8 ± 0.14 µM | 117.2 ± 0.57 µM | 117 µM
[H]/N=C(/N)NN=C(/C=C/c1cccc(F)c1)c1cn(Cc2ccccc2)c2ccccc12 [Compound 1f, (Z)-2-((E)-1-(1-Benzyl-1H-indol-3-yl)-3-(3-fluorophenyl)allylidene)hydrazine-1-carboximidamide] | 67 ± 1.95 µM | 88.59 ± 0.32 µM | 89.1 µM
[H]/N=C(/N)NN=C(/C=C/c1ccc(N(C)C)cc1)c1cn(Cc2ccccc2)c2ccccc12 [Compound 1g, (Z)-2-((E)-1-(1-Benzyl-1H-indol-3-yl)-3-(4-(dimethylamino)phenyl)allylidene)hydrazine-1-carboximidamide] | 78.2 ± 2.28 µM | 89 ± 2.29 µM | 89.1 µM
[H]/N=C(/N)NN=C(/C=C/c1cccc(Br)c1)c1cn(Cc2ccccc2)c2ccccc12 [Compound 1h, (Z)-2-((E)-1-(1-Benzyl-1H-indol-3-yl)-3-(3-bromophenyl)allylidene)hydrazine-1-carboximidamide] | 66.3 ± 1.72 µM | 15.1 ± 0.74 µM | 15.1 µM
[H]/N=C(/N)NN=C(/C=C/c1ccc(Br)cc1)c1cn(Cc2ccccc2)c2ccccc12 [Compound 1i, (Z)-2-((E)-1-(1-Benzyl-1H-indol-3-yl)-3-(4-bromophenyl)allylidene)hydrazine-1-carboximidamide] | 73.1 ± 2.07 µM | 97.83 ± 0.31 µM | 97.7 µM
[H]/N=C(/N)NN=C(/C=C/c1cc(OC)ccc1OC)c1cn(Cc2ccccc2)c2ccccc12 [Compound 1j, (Z)-2-((E)-1-(1-Benzyl-1H-indol-3-yl)-3-(2,5-dimethoxyphenyl)allylidene)hydrazine-1-carboximidamide] | 61 ± 2.29 µM | 72.2 ± 1.76 µM | 72.4 µM
[H]/N=C(/N)NN=C(/C=C/c1ccc(C)cc1)c1cn(Cc2ccccc2)c2ccccc12 [Compound 1k, (Z)-2-((E)-1-(1-Benzyl-1H-indol-3-yl)-3-(p-tolyl)allylidene)hydrazine-1-carboximidamide] | 186 ± 2.69 µM | 132.1 ± 0.28 µM | 132 µM
[H]/N=C(/N)NN=C(/C=C/c1ccc(C#N)cc1)c1cn(Cc2ccccc2)c2ccccc12 [Compound 1l, (Z)-2-((E)-1-(1-Benzyl-1H-indol-3-yl)-3-(4-cyanophenyl)allylidene)hydrazine-1-carboximidamide] | 60.9 ± 2.53 µM | 9.38 ± 0.5 µM | 9.33 µM
